Data reported in patent US7811352B2, “Fertilizer compositions and methods of using” (priority 2005, dated 2010).

Assays:
Type in all cases: in vivo
[1] = tested on: Pennlinks creeping bentgrass maintained as a golf fairway; test: Phytotoxic injury rating, fairway creeping bentgrass (Example 15)
From the text: (§1) In this Example, the effect of a fertilizer comprising lysine on cool season fairway turfgrass growth was examined. The effects of lysine (HCl) and LIQUID LYSINE on a common type of golf course fairway variety turfgrass (Pennlinks creeping bentgrass maintained as a golf fairway) were compared with those of urea, Milorganite and a blended fertilizer (a blend of methylene urea and urea in an approximately 1:1 ratio).
(§2) Fifteen fertilizer treatments comprising three concentrations of each fertilizer composition (Milorganite (N—P—K, 6-2-0), urea (N—P—K, 46-0-0), a blended fertilizer, LIQUID LYSINE (N—P—K, 10-2-1), and lysine (HCl) (N—P—K, 15-2-1)) were prepared and applied to 3 replications of a well established Pennlinks creeping bentgrass maintained as a golf fairway grass. The urea, lysine (HCl), and LIQUID LYSINE were dissolved/suspended in 1.5 gal water prior to application. […] The urea, LIQUID LYSINE and lysine (HCl) were applied as foliar liquids, while Milorganite and the blended fertilizer were applied as granular fertilizers. Plot size was 4 ft×8 ft laid out in a replicated complete block design. Plots were mowed at 0.5 inches before fertilizer application and mowed three times per week to 0.5 inch height. Grass clippings were not removed from the plots and no supplemental cultural maintenance was applied. Irrigation (0.15 inch) was applied following application and every other day thereafter. Plots were rated for turfgrass quality (scale of 1-9 where 9=dark green turf, 1=dead/brown turf, and 6=minimally acceptable turf and phytotoxic injury (scale of 0-9 where 9=significant foliar injury and 2=minimally objectional foliar injury) throughout the study period. Quality was measured prior to application (day 0) and day 37, day 70 and day 95 after application. Injury was measured on day 37, day 70 and day 95 after application. All data was subject to statistical analysis and significant means were determined. Average turfgrass quality ratings for the treatments are presented in Table 24.

[2] = tested on: Pennlinks creeping bentgrass maintained as a golf fairway; test: Turfgrass quality rating, fairway creeping bentgrass (Example 15); settings: scale of 1-9
From the text: as §1, §2

[3] = tested on: Moonlight Kentucky bluegrass; test: Phytotoxic injury rating, Kentucky bluegrass lawn (Example 17)
From the text: In this Example, the effect of a fertilizer comprising lysine on cool season lawn variety turfgrass growth was examined. The effects of lysine (HCl) and LIQUID LYSINE on a common variety of law turfgrass (Moonlight Kentucky bluegrass) were compared with those of urea, Milorganite and a blended fertilizer (a blend of methylene urea and urea in an approximately 1:1 ratio).
Fifteen fertilizer treatments comprising three concentrations of each fertilizer composition (Milorganite N—P—K, 6-2-0), urea (N—P—K, 46-0-0), a blended fertilizer, LIQUID LYSINE (N—P—K, 10-2-1), and lysine (HCl) (N—P—K, 15-2-1)) were prepared and applied to 3 replications of newly established “Moonlight” variety Kentucky bluegrass lawn turfgrass. The urea, lysine (HCl), and LIQUID LYSINE were dissolved/suspended in 1.5 gal water prior to application. […], […], The urea, LIQUID LYSINE and lysine (HCl) were applied as foliar liquids, while Milorganite and the blended fertilizer were applied as granular fertilizers. Plot size was 4 ft×8 ft laid out in a replicated complete block design. Plots were mowed at 2.0 inches before fertilizer application and mowed two times per week to 2.0 inch height. Grass clippings were not removed from the plots and no supplemental cultural maintenance or pest management was applied. Irrigation (0.15 inch) was applied following application and thereafter only when necessary to insure survival of the turf. Plots were rated for turfgrass quality (scale of 1-9 where 9=dark green turf, 1=dead/brown turf, and 6=minimally acceptable turf) and phytotoxic injury (scale of 0-9 where 9=significant foliar injury and 2=minimally objectionable foliar injury) throughout the study period. Quality was measured prior to application (day 0) and day 37, day 70 and day 95 after application. Injury was measured on day 37 and day 70 after application. In addition, blade density of the grass was measured on day 70 after application (scale of 1-9, where 9=very dense turf, 1=low density turf). All data was subject to statistical analysis and significant means were determined.

[4] = Weekly Rate 0.5 lbs N/1000 ft^2, Day 37
[5] = Weekly Rate 0.5 lbs N/1000 ft^2, Day 70
[6] = Weekly Rate 0.5 lbs N/1000 ft^2, Day 95
[7] = Weekly Rate 1.0 lbs N/1000 ft^2, Day 37
[8] = Weekly Rate 1.0 lbs N/1000 ft^2, Day 70
[9] = Weekly Rate 1.0 lbs N/1000 ft^2, Day 95
[10] = Weekly Rate 3.0 lbs N/1000 ft^2, Day 37
[11] = Weekly Rate 3.0 lbs N/1000 ft^2, Day 70
[12] = Weekly Rate 3.0 lbs N/1000 ft^2, Day 95
[13] = Weekly Rate 0.5 lbs N/1000 ft^2, Day 0
[14] = Weekly Rate 1.0 lbs N/1000 ft^2, Day 0
[15] = Weekly Rate 3.0 lbs N/1000 ft^2, Day 0

Row | Compound | Injury Rating - Fairway Bentgrass [1, 4] | Injury Rating - Fairway Bentgrass [1, 5] | Injury Rating - Fairway Bentgrass [1, 6] | Injury Rating - Fairway Bentgrass [1, 7] | Injury Rating - Fairway Bentgrass [1, 8] | Injury Rating - Fairway Bentgrass [1, 9] | Injury Rating - Fairway Bentgrass [1, 10] | Injury Rating - Fairway Bentgrass [1, 11] | Injury Rating - Fairway Bentgrass [1, 12] | Quality Rating - Fairway Bentgrass [2, 13] | Quality Rating - Fairway Bentgrass [2, 4] | Quality Rating - Fairway Bentgrass [2, 5] | Quality Rating - Fairway Bentgrass [2, 6] | Quality Rating - Fairway Bentgrass [2, 14] | Quality Rating - Fairway Bentgrass [2, 7] | Quality Rating - Fairway Bentgrass [2, 8] | Quality Rating - Fairway Bentgrass [2, 9] | Quality Rating - Fairway Bentgrass [2, 15] | Quality Rating - Fairway Bentgrass [2, 10] | Quality Rating - Fairway Bentgrass [2, 11] | also measured
1 | NC(N)=O [Urea, urea, reference compound] | 1.3ab | 6.3 | 2.0bc | 1.3ab | 6.0 | 1.3c | 1.0b | 5.7 | 4.3a | 6.7a | 6.7ab | 6.0 | 7.0a | 7.0a | 7.0a | 6.7 | 7.0a | 6.3a | 7.0a | 6.0 | Quality Rating - Fairway Bentgrass [2, 12]: 7.0a; Injury Rating - Kentucky Bluegrass [3, 4]: 1.0e; Injury Rating - Kentucky Bluegrass [3, 5]: 5.0c; Injury Rating - Kentucky Bluegrass [3, 7]: 1.3e; Injury Rating - Kentucky Bluegrass [3, 8]: 5.7bc; Injury Rating - Kentucky Bluegrass [3, 10]: 3.3bc; Injury Rating - Kentucky Bluegrass [3, 11]: 7.0ab
2 | Cl.NCCCC[C@H](N)C(=O)O [Lys (HCl) 15% N, L-lysine monohydrochloride] | 1.3ab | 5.7 | 2.0bc | 1.0b | 5.0 | 3.0abc | 2.0a | 4.7 | 2.0bc | 6.3a | 6.0ab | 6.0 | 7.0a | 7.0a | 7.0a | 5.7 | 7.0a | 7.0a | 6.7ab | 5.7 | Quality Rating - Fairway Bentgrass [2, 12]: 7.0a; Injury Rating - Kentucky Bluegrass [3, 4]: 1.7de; Injury Rating - Kentucky Bluegrass [3, 5]: 5.0c; Injury Rating - Kentucky Bluegrass [3, 7]: 2.7cd; Injury Rating - Kentucky Bluegrass [3, 8]: 6.0abc; Injury Rating - Kentucky Bluegrass [3, 10]: 6.3a; Injury Rating - Kentucky Bluegrass [3, 11]: 7.0ab
